This test addresses T1, human mAChR M1 (Homo sapiens, UniProt P11229).
T1 construct: host or cells: CHO-K1 (ATCC), stably transfected using Lipofectamine 2000
T1 sequence (P11229 1-460): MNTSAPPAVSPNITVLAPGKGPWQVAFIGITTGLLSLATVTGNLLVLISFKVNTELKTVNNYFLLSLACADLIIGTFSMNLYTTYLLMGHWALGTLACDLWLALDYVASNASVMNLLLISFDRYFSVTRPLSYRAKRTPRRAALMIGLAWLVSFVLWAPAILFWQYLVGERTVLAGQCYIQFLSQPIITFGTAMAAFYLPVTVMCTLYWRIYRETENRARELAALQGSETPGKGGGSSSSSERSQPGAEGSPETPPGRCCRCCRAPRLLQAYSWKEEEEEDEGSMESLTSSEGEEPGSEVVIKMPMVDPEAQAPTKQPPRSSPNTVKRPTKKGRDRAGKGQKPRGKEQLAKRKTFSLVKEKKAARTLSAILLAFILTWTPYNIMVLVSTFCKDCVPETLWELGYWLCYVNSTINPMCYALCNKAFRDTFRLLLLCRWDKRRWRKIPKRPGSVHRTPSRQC
The test is described as follows: mAChR M1 cell-based functional assay (calcium mobilization, Fluo-4, FDSS). The note with it: CHO-K1 cells stably expressing hM1, calcium flux; for Emax: PAM mode with EC20 acetylcholine; for EC50: concentration-dependent increase in the EC20 acetylcholine response. The source says: Chinese hamster ovary (CHO-K1) cells stably expressing rat (r)M1 were purchased from the American Type Culture Collection and cultured according to their indicated protocol. CHO cells stably expressing human (h)M2, hM3, and hM5 were described previously (Levey, et al., 1991); hM1 and hM4 cDNAs were purchased from Missouri S&T cDNA Resource; rM4 cDNA was provided by T. I. Bonner (National Institutes of Health, Bethesda, Md.). rM2 and rM3 were cloned from a rat brain cDNA library and sequence verified. hM1, rM2, rM3, hM4, and rM4 cDNAs were used to stably transfect CHO-K1 cells purchased from the American Type Culture Collection using Lipofectamine 2000. To make stable rM2, hM2, rM3, hM4, and rM4 cell lines for use in calcium mobilization assays, these cells also were stably transfected with a chimeric G-protein (Gqi5) (provided by B. R. Conklin, University of California, San Francisco) using Lipofectamine 2000. rM1, hM1, rM3, hM3, rM5, and hM5 cells were grown in Ham's F-12 medium containing 10% heat-inactivated fetal bovine serum (FBS), 20 mM HEPES, and 50 µg/mL G418 sulfate. rM2-Gqi5, hM2-Gqi5, and hM4-Gqi5 cells were grown in the same medium also containing 500 μg/mL Hygromycin B. Stable rM4-Gqi5 cells were grown in DMEM containing 10% heat-inactivated FBS, 20 mM HEPES, 400 μg/mL G418 sulfate, and 500 μg/mL Hygromycin B.
For high throughput measurement of agonist-evoked increases in intracellular calcium, CHO-K1 cells stably expressing muscarinic receptors were plated in growth medium lacking G418 and hygromycin at 15,000 cells/20 μL/well in Greiner 384-well black-walled, tissue culture (TC)-treated, clear-bottom plates (VWR). Cells were incubated overnight at 37° C. and 5% CO2. The next day, cells were washed using an ELX 405 (BioTek) with four washes ([…]) of assay buffer then aspirated to 20 μL. Next, 20 μL of 16 μM Fluo-4/acetoxymethyl ester (Invitrogen, Carlsbad, Calif.) prepared as a 2.3 mM stock in DMSO and mixed in a 1:1 ratio with 10% (w/v) Pluronic F-127 and diluted in assay buffer was added to the wells and the cell plates were incubated for 50 min at 37° C. and 5% CO2. Dye was removed by washing with the ELX 405 (four 80 μL washes of assay buffer) then aspirated to 20 μL. Compound master plates were formatted in an 11 point CRC format (1:3 dilutions) in 100% DMSO with a starting concentration of 10 mM using the BRAVO liquid handler (Agilent). Test compound CRCs were then transferred to daughter plates (240 nL) using the Echo acoustic plate reformatter (Labcyte, Sunnyvale, Calif.) and then diluted into assay buffer (40 μL) to a 2× stock using a Thermo Fisher Combi (Thermo Fisher Scientific, Waltham, Mass.).
Calcium flux was measured using the Functional Drug Screening System (FDSS) 6000 (Hamamatsu Corporation, Tokyo, Japan) as an increase in the fluorescent static ratio. Compounds were applied to cells (20 μL, 2×) using the automated system of the FDSS 6000 at 4 s into the 300 s protocol and the data were collected at 1 Hz. At 144 s into the 300s protocol, 10 μL of an EC20 concentration of the muscarinic receptor agonist acetylcholine was added (5×), followed by the addition of 12 μL an EC80 concentration of acetylcholine at the 230 s time point (5×). Agonist activity was analyzed as a concentration-dependent increase in calcium mobilization upon compound addition. Positive allosteric modulator activity was analyzed as a concentration-dependent increase in the EC20 acetylcholine response. Antagonist activity was analyzed as a concentration-dependent decrease in the EC80 acetylcholine response. Concentration-response curves were generated using a four-parameter logistical equation in XLfit curve fitting software (IDBS, Bridgewater, N.J.) for Excel (Microsoft, Redmond, Wash.) or Prism (GraphPad Software, Inc., San Diego, Calif.).
Activity (EC50 and Emax) was determined in the mAChR M1 cell-based functional assay as described above and the data are shown in Table 2. […]

We go through 13 molecules from patent US20190330226A1, “POSITIVE ALLOSTERIC MODULATORS OF THE MUSCARINIC ACETYLCHOLINE RECEPTOR M1” (Vanderbilt University, priority 2018, published 2019).

Each structure is given as a SMILES string.

In the case of `Cn1cc2c(-c3cc(F)c(CN4Cc5ccn(C)c5C4=O)c(F)c3)cccc2n1` [Compound 4, 5-(2,6-difluoro-4-(2-methyl-2H-indazol-4-yl)benzyl)-1-methyl-4,5-dihydropyrrolo[3,4-b]pyrrol-6(1H)-one], the Emax came out at 36% and the EC50 is 1.88 µM.

With `Cn1cc(-c2ccc(CN3Cc4ncsc4C3=O)c(F)c2)cn1` [Compound 12, 5-(2-fluoro-4-(1-methyl-1H-pyrazol-4-yl)benzyl)-4,5-dihydro-6H-pyrrolo[3,4-d]thiazol-6-one], the Emax stood at 47%.

Consider `Cn1cc2c(-c3cc(F)c(CN4Cc5cnn(Cc6ccccn6)c5C4=O)c(F)c3)cccc2n1` [Compound 6, 5-(2,6-Difluoro-4-(2-methyl-2H-indazol-4-yl)benzyl)-1-(pyridin-2-ylmethyl)-4,5-dihydropyrrolo[3,4-c]pyrazol-6(1H)-one], for which the Emax was 63%.

As for `COCCn1ncc2c1C(=O)N(Cc1c(F)cc(-c3cccc4nn(C)cc34)cc1F)C2` [Compound 18, 5-(2,6-difluoro-4-(2-methyl-2H-indazol-4-yl)benzyl)-1-(2-methoxyethyl)-4,5-dihydropyrrolo[3,4-c]pyrazol-6(1H)-one], the Emax was 87% and the concentration giving a half-maximal response (EC50) came to 3.1 µM.

On to `Cn1cc2cc(-c3ccc(CN4Cc5ncsc5C4=O)c(F)c3)ccc2n1` [Compound 13, 5-(2-fluoro-4-(2-methyl-2H-indazol-5-yl)benzyl)-4,5-dihydro-6H-pyrrolo[3,4-d]thiazol-6-one], for which the Emax was found to be 51% and the EC50 is 1.85 µM.

As for `Cn1cc2c(-c3cc(F)c(CN4Cc5ncsc5C4=O)c(F)c3)cccc2n1` [Compound 5, 5-(2,6-difluoro-4-(2-methyl-2H-indazol-4-yl)benzyl)-4,5-dihydro-6H-pyrrolo[3,4-d]thiazol-6-one], the maximal effect (Emax) turned out to be 73%.

Regarding `O=C1c2ccsc2CN1Cc1ccc(-c2ccc3nccn3c2)cc1F` [Compound 45, 5-(2-fluoro-4-(imidazo[1,2-a]pyridin-6-yl)benzyl)-5,6-dihydro-4H-thieno[2,3-c]pyrrol-4-one], the Emax was 50% and the EC50 turned out to be 4.46 µM.

Regarding `Cn1cc2cc(-c3ccc(CN4Cc5sccc5C4=O)c(F)c3)ccc2n1` [Compound 44, 5-(2-fluoro-4-(2-methyl-2H-indazol-5-yl)benzyl)-5,6-dihydro-4H-thieno[2,3-c]pyrrol-4-one], the Emax was found to be 51% and the EC50 came out at 2.78 µM.

For `Cn1cc2cc(-c3cc(F)c(CN4Cc5ccn(CC6CCCO6)c5C4=O)c(F)c3)ccc2n1` (stereo not shown) [Compound 8, 5-(2,6-difluoro-4-(2-methyl-2H-indazol-5-yl)benzyl)-1-((tetrahydrofuran-2-yl)methyl)-4,5-dihydropyrrolo[3,4-b]pyrrol-6(1H)-one], the Emax came to 33% and the EC50 turned out to be 3.85 µM.

With `Cn1cc2c(-c3cc(F)c(CN4Cc5cc[nH]c5C4=O)c(F)c3)cccc2n1` [Compound 9, 5-(2,6-difluoro-4-(2-methyl-2H-indazol-4-yl)benzyl)-4,5-dihydropyrrolo[3,4-b]pyrrol-6(1H)-one], the Emax stood at 36% and the EC50 stood at 1.88 µM.

As to `Cn1cc2c(-c3cc(F)c(CN4Cc5ccn(CC6CCOCC6)c5C4=O)c(F)c3)cccc2n1` [Compound 55, 5-(2,6-difluoro-4-(2-methyl-2H-indazol-4-yl)benzyl)-1-((tetrahydro-2H-pyran-4-yl)methyl)-4,5-dihydropyrrolo[3,4-b]pyrrol-6(1H)-one], the Emax turned out to be 59% and the EC50 amounted to 8.98 µM.

Regarding `Cn1cc(-c2ccc(CN3Cc4sccc4C3=O)cc2)nn1` [Compound 48, 5-(4-(1-methyl-1H-1,2,3-triazol-4-yl)benzyl)-5,6-dihydro-4H-thieno[2,3-c]pyrrol-4-one], the Emax worked out at 33%.

As for `Cn1cc2c(-c3ccc(CN4Cc5sccc5C4=O)c(F)c3)cccc2n1` [Compound 40, 5-(2-fluoro-4-(2-methyl-2H-indazol-4-yl)benzyl)-5,6-dihydro-4H-thieno[2,3-c]pyrrol-4-one], the Emax was found to be 67% and the EC50 was 3.97 µM.
